Assay results: PMC12673148, “Structural basis of protease-activated receptor 2 activation and biased agonism” (Cell Discovery, 2025)
Where two headings read alike, the source gives them in different places. One block for each molecule: values may come before it.

Assays:
PAR2 (Gq signaling) [1] = experiment: BRET0 assay, tricistronic Gq sensor, ligand-induced; format: cell-based, human
Procedure: (§1) To measure the self-activation of WT and mutant PAR2 in response to G protein activity, a tricistronic activity sensor assay was performed as previously described. The G protein sensor plasmids were obtained from Addgene (https://addgene.org/Gunnar_Schulte/). To measure constitutive activity, AD293 cells in 6-well plates were cotransfected with 500 ng of WT or mutant PAR2 and 500 ng of the G protein sensor construct (pcDNA-Gα-Nluc/Gβ3/cpVenus-Gγ9 fusion combination) with Lipofectamine 2000 (Invitrogen). After being incubated for 24 h at 37 °C in a 5% CO2 atmosphere, the transfected cells were seeded into white 96-well plates and grown for another 24 h. The cells were subsequently washed with HBSS and incubated with a 1:1000 dilution of furimazine stock solution. After incubation for 3 min at 37 °C, the BRET ratio was measured twice consecutively to assess constitutive receptor activity using an EnVision multimode plate reader (PerkinElmer). Nluc emission intensity was selected using a 450/40-nm monochromator, and cpVenus^173 emission was selected using a 535/30-nm monochromator with an integration time of 0.3 s in both channels. The ratio of cpVenus/Nluc intensity was calculated for each well and normalized to that of the vehicle control.
(§2) For ligand-induced BRET0 measurements, transfected cells were plated in 96-well plates for 24 h, after which the cells were washed with HBSS and incubated with a 1:1000 dilution of furimazine stock solution. After being incubated for 3 min at 37 °C, the cells were treated with the addition of ligand solutions or vehicle control. Plates were then subjected to BRET measurements with an EnVision plate reader (PerkinElmer) at 450/40-nm (Nluc-furimazine) and 535/30-nm to detect ligand-induced changes in the BRET signal. Like in the BRET2 assay, the BRET signal was calculated by the ratio of the intensity at 535 nm (cpVenus) to that at 450 nm (Nluc), and the Δnet BRET ratio was calculated by subtracting the intensity of the vehicle control from that of each experimental well. […]

PAR2 (G13 signaling) [2] = experiment: BRET0 assay, tricistronic G13 sensor, ligand-induced; format: cell-based, human
Procedure: as §1, §2

PAR2 (Gi signaling) = experiment: BRET0 assay, Gi sensor, ligand-induced; format: cell-based, human; settings: AD293 cells, full-length (FL) PAR2, Fig. S1b
Procedure: as §1, with “The cells were subsequently washed with HBSS and incubated with a 1:1000 dilution of furimazine stock solution.” left out, “Nluc emission intensity was selected using a 450/40-nm monochromator, and cpVenus^173 emission was selected using a 535/30-nm monochromator with an integration time of 0.3 s in both channels.” left out
(§3) For ligand-induced BRET0 measurements, transfected cells were plated in 96-well plates for 24 h, after which the cells were washed with HBSS and incubated with a 1:1000 dilution of furimazine stock solution. […] Plates were then subjected to BRET measurements with an EnVision plate reader (PerkinElmer) at 450/40-nm (Nluc-furimazine) and 535/30-nm to detect ligand-induced changes in the BRET signal. […]

PAR2 (Gs signaling) [3] = experiment: BRET0 assay, Gs sensor, ligand-induced; format: cell-based, human; settings: AD293 cells, full-length (FL) PAR2, Fig. S1b
Procedure: as §1, with “The cells were subsequently washed with HBSS and incubated with a 1:1000 dilution of furimazine stock solution.” left out, “Nluc emission intensity was selected using a 450/40-nm monochromator, and cpVenus^173 emission was selected using a 535/30-nm monochromator with an integration time of 0.3 s in both channels.” left out
as §3

PAR2 (Gs signaling) [4] = settings: full-length (FL) PAR2; cited from earlier work
Source text: To mimic trypsin cleavage of PAR2 between R36 and S37, we removed residues 2–36 of PAR2 and allowed native methionine aminopeptidase (MAP) to remove the N-terminal methionine residue via a process termed N-terminal methionine processing that occurs naturally across prokaryotes and eukaryotes. We employed a bioluminescence resonance energy transfer (BRET) assay consisting of G protein-based tricistronic activity sensors (BRET0)[17] to quantitatively assess the constitutive activity of GPCR. This approach allowed us to measure the intrinsic activity of the PAR2 constructs. Compared with the ...

PAR2 (G13 signaling) [5] = experiment: BRET2 G13 dissociation assay; format: cell-based, human
Procedure: (§4) In accordance with previous methods, AD293 cells were plated in 6-well plates at 700,000–800,000 cells per well. After 1 day of growth at 37 °C with 5% CO2, the cells in each well were transfected with 100 ng of pcDNA3-PAR2 (Δ1–48) WT or mutants, 100 ng of Gα-RLuc8, 100 ng of Gβ, and 100 ng of Gγ-green fluorescent protein (Gγ-GFP) plasmids with Lipofectamine 2000 (Thermo Fisher Scientific). After being incubated for 1 day, the cells were collected, pelleted by centrifugation, and suspended in DMEM supplemented with 5% (v/v) FBS. The cell suspensions were dispensed in white 96-well plates at a density of 25,000–50,000 cells per well. One day after being plated, the growth medium was carefully aspirated and replaced immediately with 60 μL of 1× Hank’s balanced salt solution (HBSS) containing 20 mM HEPES (pH 7.4; assay buffer), followed by the addition of 10 μL of freshly prepared 50 μM coelenterazine 400a (Yeasen). After a 5-min equilibration period, the cells were treated with 30 μL of drug for an additional 5 min. The plates were then measured in an EnVision plate reader (PerkinElmer) with 395 nm (RLuc8-coelenterazine 400a) and 510 nm (GFP2) emission filters with integration times of 1 s. The BRET signal was calculated by the ratio of the luminescence intensity at 510 nm (GFP) to that at 395 nm (RLuc), and the Δnet BRET ratio was calculated by subtracting the luminescence intensity of the vehicle control from that of each experimental well (510 nm/395 nm). The data were subsequently plotted as a four-parameter sigmoidal concentration–response curve in GraphPad Prism 8.

PAR2 (Gq signaling) [6] = experiment: BRET2 Gq dissociation assay; format: cell-based, human
Procedure: as §4

PAR2 (Gq signaling) [7] = experiment: NanoBiT G protein dissociation assay, Gq; format: cell-based, human; settings: mean ± SD
Procedure: (§5) Ligand-induced G protein activation was measured by a NanoBiT G protein dissociation assay, as described previously[11],[41]. Briefly, AD293 cells cultured in 6-well plates were transfected with plasmids encoding a large fragment (LgBiT)-containing Gαq or Gα13 subunit (100 ng), a small fragment (SmBiT)-fused Gβ1 subunit (500 ng), and the untagged Gγ2 subunit with a C68S mutation (500 ng) in combination with the WT PAR2 construct (200 ng). After being incubated for 1 day, the transfected cells were collected, pelleted by centrifugation, and suspended in HBSS containing 0.01% bovine serum albumin (Solarbio) and 5 mM HEPES (pH 7.4; assay buffer). The cell suspension was dispensed in white 96-well plates at a volume of 80 μL per well and mixed with 20 μL of 50 μM coelenterazine native (BIOSTNTH). After incubation for 2 h at RT, the baseline luminescence was measured, after which 20 μL of test compound (6×) was added, and subsequent luminescence measurements were performed to detect ligand-induced changes. Luminescence intensity measured from 3 min to 5 min after compound addition was normalized to the initial intensity, and the net luminescence was calculated by subtracting the luminescence ratio of the vehicle control from the normalized luminescence per well. The G protein dissociation signals were fitted to a four-parameter sigmoidal concentration–response curve (GraphPad Prism 8).

PAR2 (G13 signaling) [8] = experiment: NanoBiT G protein dissociation assay, G13; format: cell-based, human; settings: mean ± SD
Procedure: as §5

PAR2 [9] = settings: cited from earlier work; for PAR2 activation: synthetic peptides mimicking the TL
Source text: We used the N-terminal deletion construct of PAR2 (Δ1–48) as the backbone of the receptor to support downstream signaling, as it has lower intrinsic activity than the FL receptor does (Supplementary Fig. S1a).

PAR2 [10] = settings: cited from earlier work
PAR2 [11] = settings: cited from earlier work; remark: listed apart in the source
[12] = AD293 cells, full-length (FL) PAR2, Fig. S1b
[13] = PAR2 (Δ1–48) D62A, AD293 cells, mean ± SD, n = 3, Fig. 5b
[14] = PAR2 D62A, AD293 cells, n = 3, Fig. S5a
[15] = BRET0, AD293 cells, mean ± SD, n = 3, Fig. S5b
[16] = PAR2 (Δ1–48) WT, AD293 cells, mean ± SD, n = 3, Fig. 5g
[17] = summary statement, assay not named (BRET2, BRET0, NanoBiT used)

Molecule: SLIGKV [SLIGKV (TL), tethered ligand peptide of human PAR2]
Gq signaling activation (PAR2 (Gq signaling) [1]; [12]): activated
G13 signaling activation (PAR2 (G13 signaling) [2]; [12]): activated
Gi signaling activation (PAR2 (Gi signaling)): activated
Gs signaling activation (PAR2 (Gs signaling) [3]): had no effect on Gs signaling
Gs signaling induction (PAR2 (Gs signaling) [4]): incapable of inducing Gs signaling

G13 receptor activity, D228A mutant (PAR2 (G13 signaling) [5]; PAR2 (Δ1–48) D228A, AD293 cells, mean ± SD, n = 3, Fig. 2c): strongly decreased receptor activity
G13 receptor activity, H227A mutant (PAR2 (G13 signaling) [5]; PAR2 (Δ1–48) H227A, AD293 cells, mean ± SD, n = 3, Fig. S3h): decreased receptor activity
G13 receptor activity, H310A mutant (PAR2 (G13 signaling) [5]; PAR2 (Δ1–48) H310A, AD293 cells, mean ± SD, n = 3, Fig. 2c): strongly decreased receptor activity
G13 receptor activity, L230A mutant (PAR2 (G13 signaling) [5]; PAR2 (Δ1–48) L230A, AD293 cells, mean ± SD, n = 3, Fig. 2c): strongly decreased receptor activity
G13 receptor activity, P231A mutant (PAR2 (G13 signaling) [5]; PAR2 (Δ1–48) P231A, AD293 cells, mean ± SD, n = 3, Fig. 2c): strongly decreased receptor activity
G13 receptor activity, V229A mutant (PAR2 (G13 signaling) [5]; PAR2 (Δ1–48) V229A, AD293 cells, mean ± SD, n = 3, Fig. S3h): decreased receptor activity
G13 receptor activity, Y311A mutant (PAR2 (G13 signaling) [5]; PAR2 (Δ1–48) Y311A, AD293 cells, mean ± SD, n = 3, Fig. 2c): strongly decreased receptor activity
G13 receptor activity, Y323A mutant (PAR2 (G13 signaling) [5]; PAR2 (Δ1–48) Y323A, AD293 cells, mean ± SD, n = 3, Fig. 2c): strongly decreased receptor activity
Molecule: SLIGRL-NH2 [mouse tethered-ligand peptide used as synthetic WT peptide]
Gq versus G13 bias, D62A mutant (PAR2 (Gq signaling) [1]; PAR2 D62A, AD293 cells, BRET0, mean ± SD, n = 3, Fig. S5a): clearly biased toward Gq signaling
G13 activity, D62A mutant (PAR2 (G13 signaling) [2]; PAR2 D62A, AD293 cells, mean ± SD, n = 3, Fig. S5a): minimal G13 activity
G13 activity, D62A mutant (PAR2 (G13 signaling) [5]; [13]): almost completely abolished G13 activity
Gq activity, D62A mutant (PAR2 (Gq signaling) [6]; [13]): only had a minor effect on Gq activity
Gq versus G13 bias, D62A mutant (PAR2 (Gq signaling) [7]; [14]): clearly biased toward Gq signaling
G13 activity, D62A mutant (PAR2 (G13 signaling) [8]; [14]): minimal G13 activity
inducing activity versus human ligand SLIGKV-NH2 (PAR2 [9]): much higher inducing activity than the human ligand
PAR2 activation (PAR2 [9]): activating the receptor independently of protease cleavage

Molecule: C/C(=N\NC(=O)[C@H]1C(=O)NC[C@@H]1c1ccccc1)c1cccc(Br)c1 [AC264613]
PAR2 agonism (PAR2 [9]; reference not given): potent PAR2-selective agonist

Molecule: SLIGKV-NH2 [human tethered-ligand synthetic peptide]
PAR2 activation (PAR2 [9]): activating the receptor independently of protease cleavage

Molecule: SLVGRL-NH2 [synthetic peptide with valine at third TL residue; Gq-biased ligand]
Gq versus G13 bias (PAR2 (Gq signaling) [1]; [15]): strong bias toward Gq signaling
G13 activity (PAR2 (G13 signaling) [2]; [15]): minimal G13 activity
G13 activity relative to WT peptide (PAR2 (G13 signaling) [5]; [16]): lost most of the G13 activity
G13 signaling (discussion summary) (PAR2 (G13 signaling) [5]; [17]): minimal effect on G13 signaling
Gq activity relative to WT peptide (PAR2 (Gq signaling) [6]; [16]): maintained most of the Gq activity of the WT peptide
Gq signaling (discussion summary) (PAR2 (Gq signaling) [6]; [17]): predominantly activates Gq signaling
Gq versus G13 bias (PAR2 (Gq signaling) [7]; WT PAR2, AD293 cells, n = 3, Fig. S5b): strong bias toward Gq signaling
G13 activity (PAR2 (G13 signaling) [8]; NanoBiT, WT PAR2, AD293 cells, n = 3, Fig. S5b): minimal G13 activity

Molecule: 2f-LAAAAI-NH2 [DF253]
PAR2-mediated Ca2+ release (PAR2 [10]): trigger PAR2-mediated Ca^2+ release
ERK1/2 phosphorylation (PAR2 [11]): without inducing ERK1/2 phosphorylation

Molecule: Isox-Cha-Chg-Chg-A-R-NH2 [AY254]
ERK1/2 phosphorylation (PAR2 [11]): ERK-biased agonist

Molecule: 2-furoyl-LIGRL-NH2
PAR2 activation (PAR2 [9]): activating the receptor independently of protease cleavage

Molecule: CC[C@H](C)[C@H](NC(=O)[C@H](CC1CCCCC1)NC(=O)c1ccno1)C(=O)N1CCC2(C=Cc3ccccc32)CC1 [GB88]
PAR2 agonism (PAR2 [9]): partial PAR2 agonist

Molecule: SLAGRL-NH2
efficacy (PAR2 [9]): significantly lower efficacy

B1: NE: neutrophil elastase, protease cleaving PAR2 between S67↓V68 (protein, UniProt P08246 30-267, looked up)
Neutrophil elastase: IVGGRRARPHAWPFMVSLQLRGGHFCGATLIAPNFVMSAAHCVANVNVRAVRVVLGAHNLSRREPTRQVFAVQRIFENGYDPVNLLNDIVILQLNGSATINANVQVAQLPAQGRRLGNGVQCLAMGWGLLGRNRGIASVLQELNVTVVTSLCRRSNVCTLVRGRQAGVCFGDSGSPLVCNGLIHGIASFVRGGCASGLYPDAFAPVAQFVNWIDSIIQRSEDNPCPHPRDPDPASRTH
Ca2+ release on PAR2 cleavage (PAR2 [10]; cleavage at E56↓T57 (CS) or S67↓V68 (NE)): not Ca^2+ release
ERK1/2 activation on PAR2 cleavage (PAR2 [11]; cleavage at S67↓V68): activates ERK1/2
